Experimental findings from PubChem BioAssay (NCI) are described below.

SMILES strings stand for the structures.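 48-hour exposure; five concentrations; linearly interpolated endpoints. GI50 marks 50% less growth. TGI: concentration producing complete growth inhibition.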

What all share (test): NCI-60 cell line screen, 48 h
The test system of assay [1] is 786-0 renal.
Assay [2] has as its system ACHN renal.
Assay [3] has as its system COLO 205 colon.
Assay [4] has as its system EKVX NSCLC.
The subject of assay [5] is HOP-62 NSCLC.
Assay [6] concerns LOX IMVI melanoma.
Assay [7] deals with SF-268 CNS.
The subject of assay [8] is SF-295 CNS.
Assay [9] concerns SNB-19 CNS.
Assay [10] has as its system SNB-75 CNS.

As to `COc1ccc(S(=O)(=O)NC2=NCCN2C(=S)SN2CCn3c2nsc3=S)cc1OC`, the GI50 in assay [1] was 25.5 µM; in assay [2] it was 28.9 µM; in [3], 12.5 µM; in assay [4], 50100 nM; in assay [5], 27500 nM; in [6] it was 16800 nM. The GI50 in assay [7] is 23200 nM; in assay [8], 20900 nM; in assay [9], 26600 nM; in [10] it was 12700 nM. Moreover, the TGI in assay [1] was 63.9 µM; in [2], > 100 µM; in [3], 29 µM; in assay [4], > 100 µM; in [5] it was 78.3 µM; in assay [6] it was 37.8 µM. Moreover, the TGI in assay [7] was 79.2 µM; in assay [8], 56.2 µM; in assay [9], > 100 µM; in [10] it was 46.4 µM.
As to `COc1ccc2c(c1)C(=O)c1c-2c(OCCN(C)C)nc2cc(OC)ccc12`, the GI50 was 1.46 µM in [1]; 0.532 µM in assay [2]; 0.571 µM in [3]; 2130 nM in [4]; 2020 nM in [5]; 751 nM in [6]. Also, the GI50 is 1120 nM in [7], 2220 nM in [8], 1120 nM in assay [9] and 1990 nM in assay [10]. In addition, the TGI in assay [1] came to 2.84 µM; in [2] it was 1.9 µM; in [3], 10.8 µM; in assay [4] it was 8.63 µM; in assay [5], 8.04 µM; in assay [6], 2.07 µM. Moreover, the TGI in [7] amounted to 2.84 µM; in [8], 11.5 µM; in [9] it was 6.24 µM; in assay [10], 9.02 µM.
Take `CC(C)(C)OC(=O)N1CC(Cn2cc(C(F)(F)F)c3c(Cl)ncnc32)C1`: the GI50 was 16.8 µM in assay [1]; 15 µM in assay [2]; 12.6 µM in [3]; 2630 nM in assay [4]; 1950 nM in assay [5]; 1750 nM in assay [6]. Besides, the GI50 is 1750 nM in assay [7], 1990 nM in assay [8], 1800 nM in assay [9] and 4990 nM in [10]. The TGI in assay [1] was found to be 36.7 µM; in assay [2] it was 31.9 µM; in [3], 28.5 µM; in assay [4] it was 10.2 µM; in assay [5] it was 3.93 µM; in assay [6], 3.27 µM. Also, the TGI in assay [7] is 3.4 µM; in assay [8], 4.75 µM; in assay [9] it was 3.33 µM; in assay [10], 18.1 µM.
With `C[n+]1c2cc(N)ccc2cc2ccc(N)cc21` (tested in a mixture with another compound), the GI50 is 0.32 µM in [1]; 0.304 µM in assay [2]; 0.148 µM in assay [3]; 261 nM in assay [4]; 630 nM in assay [5]; 307 nM in [6]. The GI50 in assay [7] is 265 nM; in assay [8], 809 nM; in assay [9], 578 nM; in assay [10], 314 nM. Moreover, the TGI came out at 2.29 µM in assay [1]; 3.59 µM in assay [2]; 1.3 µM in assay [3]; 1.77 µM in [4]; 5.37 µM in assay [5]; 1.46 µM in assay [6]. The TGI in assay [7] amounted to 1.29 µM; in assay [8], 4.62 µM; in assay [9] it was 3.94 µM; in assay [10], 1.38 µM.
For `COc1ccc(N2CCN(CN3CCN(c4ccc(OC)cc4)C3)C2)cc1`, the GI50 in assay [1] is > 100 µM; in assay [2] it was 33.5 µM; in [3], > 100 µM; in assay [4], > 100000 nM; in assay [5] it was 81500 nM; in assay [6], 41300 nM. The GI50 in assay [7], in assay [8], in assay [9] and in assay [10] was > 100000 nM each time. The TGI in assay [1] is > 100 µM; in [2] it was 96.9 µM; in [3] it was > 100 µM; in [4], > 100 µM; in assay [5], > 100 µM; in [6], > 100 µM. The TGI in [7], in assay [8], in [9] and in assay [10] was > 100 µM throughout.
`CSC1=Nc2c(c(C)c(-c3ccccc3)n2CCCCl)C2=NC(=O)CN12`: the GI50 was 8.57 µM in assay [1]; 9.48 µM in assay [2]; 4.13 µM in [3]; 6890 nM in assay [4]; 11000 nM in [5]; 4130 nM in assay [6]. Further, the GI50 in assay [7] was 8570 nM; in assay [8], 4110 nM; in assay [9], 3970 nM; in assay [10] it was 2830 nM. Also, the TGI is 61.7 µM in assay [1]; 37.7 µM in assay [2]; 15.2 µM in [3]; 31 µM in assay [4]; 63.1 µM in [5]; 17.6 µM in assay [6]. Also, the TGI came to 47.6 µM in [7], 26.8 µM in assay [8], 17.8 µM in assay [9] and 11.6 µM in assay [10].
As for `COc1ccc2c(O)c(/C=C3\N=Nc4ncccc43)oc2c1C[C@H]1CCNC[C@H]1F`, the GI50 was 0.241 µM in [1]; 0.27 µM in assay [2]; 0.24 µM in assay [3]; 484 nM in assay [4]; 409 nM in assay [5]; 304 nM in assay [6]. The GI50 was 296 nM in [7], 343 nM in assay [8], 419 nM in assay [9] and 185 nM in assay [10]. Moreover, the TGI in assay [1] came out at 1.61 µM; in [2] it was 8.18 µM; in assay [3] it was 0.806 µM; in assay [4] it was 9.62 µM; in assay [5], 3.94 µM; in assay [6], 1.78 µM. Moreover, the TGI in assay [7] turned out to be 10.4 µM; in assay [8], 11.9 µM; in assay [9] it was 11.6 µM; in [10], 1.54 µM.
